Counter-ions that a name gives are not always drawn.
Experiments:
[1] = Acute toxicity in the mouse, Weil's method; details: in vivo, ip
Text: The acute toxicity of the compounds of general formula (I) has been studied in the mouse with the Weil method (Weil C. S., Biometr. J. 8, 249, 1952).
The LD50 values of some compounds illustrated in Table I, indicate that the compounds are remarkably well tolerated.
LD50, mg Kg^-1, ep in mouse of some thiocarnitines of general
formula (I). Weil's method (N = 5, K = 4) Cl = hydrochloride

rats = assay: Protection against X-ray exposure in rats (survival after irradiation); format: in vivo, Albino Wister rats; details: 20-25 mg Kg^-1 1 hour before irradiation; for Percentage of surviving animals, day 10: 10 days from irradiation, control 90; for Percentage of surviving animals, day 20: 20 days from irradiation, control 20; for Percentage of surviving animals, day 30: 30 days from irradiation, control 10
Procedure: The effect of the compounds of formula (I) towards the damages provoked by X-ray exposure was studied.
The experiment animals, Albino Wister rats, treated with the compounds under examination (20-25 mg Kg^-1 1 hour before irradiation) were irradiated and checked over a time period to detect the onset of toxic effects and the time of survival with respect to the control group. […]
Protective effect of some thiocarnitines of general
formula (I) towards the damage provoked by irradiation
in rats. Percentage of surviving animals at
various days from irradiation.

rabbit = assay: Cutaneous regeneration from burns in the rabbit; format: in vivo; details: 20 mg Kg^-1 orally once a day for seven days; for Percentage of regenerated tissue, 4th day: control 20; for Percentage of regenerated tissue, 8th day: control 50
Procedure: The ability of the compounds of formula (I) to speed up the cutaneous regeneration from burns has been tested in the rabbit.
A 4 cm^2 cutaneous area of the average-top zone of the test animal back was burned.
The compounds were orally administered in aqueous solution at the dose of 20 mg Kg^-1 once a day for seven days. The area of cutaneous regeneration i.e. the area of the newly formed tissue, was then measured (Table III).
Effect of compounds of formula (I) on cutaneous
regeneration. Percentage of regenerated tissue at the 4th
and 8th day from treatment.

[2] = Hygroscopicity and stability to the atmosphere of the isolated product; format: physicochemical; details: for hygroscopicity: isolated product
acetylcholine = assay: Formation of acetylcholine
[3] = Crossing of the blood-brain barrier
CoA = assay: Transfer of the acetyl group to CoA / acyl group donor; format: biochemical
[4] = "ep" route, Weil's method (N = 5, K = 4)

For `C[N+](C)(C)CC(S)CC(=O)O` (centres unmarked) [Thiocarnitine, thiocarnitine hydrochloride], the LD50 [1, 4] was 150 mg/kg, the “Percentage of surviving animals, day 10” value (rats) was 95 Percentage and the “Percentage of surviving animals, day 20” value (rats) was 60 Percentage. For the same compound, the “Percentage of surviving animals, day 30” value (rats) was 50 Percentage, the “Percentage of regenerated tissue, 4th day” value (from here on “Percentage … 4th day”) (rabbit) was 40 Percentage and the “Percentage of regenerated tissue, 8th day” value (shortened to “Percentage … 8th day”) (rabbit) was 90 Percentage. The “stability upon exposure to the atmosphere” value ([2]; exposure to the atmosphere) was “darkened upon exposure to the atmosphere” and the hygroscopicity [2] was “very hygroscopic”.

In the case of `CC(O)CC(=O)SC(CC(=O)O)C[N+](C)(C)C` (stereo not drawn) [S--hydroxybutyryl thiocarnitine Cl, S-beta hydroxybutyryl thiocarnitine], the LD50 [1, 4] is reported as 300 mg/kg, the “Percentage of surviving animals, day 10” value (rats) is reported as 100 Percentage and the “Percentage of surviving animals, day 20” value (rats) is reported as 80 Percentage. The “Percentage of surviving animals, day 30” value (rats) was 60 Percentage, the “Percentage … 4th day” value (rabbit) was 30 Percentage and the “Percentage … 8th day” value (rabbit) was 60 Percentage. For the same compound, the hygroscopicity [2] was “very hygroscopic”.

In the case of `CCC(CC)C(=O)SC(CC(=O)O)C[N+](C)(C)C` (centres unmarked) [S--diethylacetyl thiocarnitine Cl, S-diethylacetyl thiocarnitine], the LD50 [1, 4] is reported as 295 mg/kg, the “Percentage of surviving animals, day 10” value (rats) is reported as 80 Percentage and the “Percentage of surviving animals, day 20” value (rats) is reported as 60 Percentage. The “Percentage of surviving animals, day 30” value (rats) was 30 Percentage, the “Percentage … 4th day” value (rabbit) was 50 Percentage and the “Percentage … 8th day” value (rabbit) was 60 Percentage. The hygroscopicity [2] was “highly hygroscopic”.

With `CCCC(=O)SC(CC(=O)O)C[N+](C)(C)C` (centres unmarked) [S--butyryl thiocarnitine Cl, S-butyryl thiocarnitine halogenide] the LD50 [1] was 350 mg/kg, the “Percentage of surviving animals, day 10” value (rats) was 90 Percentage and the “Percentage of surviving animals, day 20” value (rats) was 40 Percentage. For the same compound, the “Percentage of surviving animals, day 30” value (rats) was 40 Percentage, the “Percentage … 4th day” value (rabbit) was 20 Percentage and the “Percentage … 8th day” value (rabbit) was 40 Percentage.

With `CC(=O)SC(CC(=O)O)C[N+](C)(C)C` (centres unmarked) [S--acetyl thiocarnitine Cl, S-acetyl thiocarnitine hydrochloride] the LD50 [1, 4] was 294 mg/kg, the “Percentage of surviving animals, day 10” value (rats) was 100 Percentage and the “Percentage of surviving animals, day 20” value (rats) was 70 Percentage. For the same compound, the “Percentage of surviving animals, day 30” value (rats) was 60 Percentage, the “Percentage … 4th day” value (rabbit) was 50 Percentage and the “Percentage … 8th day” value (rabbit) was 90 Percentage. For the same compound, the formation of acetylcholine (acetylcholine) was “promotes the formation of acetylcholine”, the “ability to cross the blood-brain barrier” value [3] was “able to cross the blood-brain barrier” and the “acyl group donor activity” value (CoA) was “potent acyl group donor”. For the same compound, the “transfer of the acetyl group to CoA” value (CoA; in the absence of CoA carnitine acetyl transferase) was “able to transfer the acetyl group to CoA directly even in the absence of the enzyme”.

In the case of `CCC(=O)SC(CC(=O)O)C[N+](C)(C)C` (centres unmarked) [S--propionyl thiocarnitine Cl, S-propionyl thiocarnitine halogenide], the LD50 [1] is reported as 302 mg/kg, the “Percentage of surviving animals, day 10” value (rats) is reported as 90 Percentage and the “Percentage of surviving animals, day 20” value (rats) is reported as 70 Percentage. The “Percentage of surviving animals, day 30” value (rats) was 50 Percentage, the “Percentage … 4th day” value (rabbit) was 30 Percentage and the “Percentage … 8th day” value (rabbit) was 70 Percentage.

For `CCCC(CCC)C(=O)SC(CC(=O)O)C[N+](C)(C)C` (centres unmarked) [S--dipropylacetyl thiocarnitine Cl, S-dipropylacetil thiocarnitine hydrochloride], the LD50 [1] was 350 mg/kg, the “Percentage of surviving animals, day 10” value (rats) was 90 Percentage and the “Percentage of surviving animals, day 20” value (rats) was 70 Percentage. The “Percentage of surviving animals, day 30” value (rats) was 50 Percentage, the “Percentage … 4th day” value (rabbit) was 50 Percentage and the “Percentage … 8th day” value (rabbit) was 100 Percentage.

— patent US4483869A, “Thiocarnitines, process for their preparation and pharmaceutical compositions containing same” (Sigma-Tau Industrie Farmaceutiche Riunite S.p.A., priority 1980, dated 1984)
